Tested on: A549 cells
Assay: Microarray analysis of gene expression after LAQ824 treatment
Format: cell-based, human
Settings: A549, 500 nM vs DMSO
Description: The human lung carcinoma cell line A549 is obtained from the American Type Culture Collection (Rockville, Md.) and cultured in F-12K (ATCC, Manassas, Va.), 10% fetal bovine serum, and 1% penicillin/streptomycin (Life Technologies, Inc.). LAQ824 (Novartis) is added directly to the cell medium at a final concentration of 500 nM. Microarray analysis is performed essentially as described previously (Welsh, 2001). Total RNA is prepared from A549 cells treated with LAQ 824 or DMSO for 0.5, 2, 6, 12 and 24 h. Labelled cDNA is prepared and hybridized to Affymetrix U133 oligonucleotide GeneChip® (Affymetrix, Santa Clara, Calif.). The arrays were scanned on an Affymetrix GeneArray scanner and analyzed with GENECHIP Microarray Analysis Suite 5.0 software (MAS5) (Affymetrix). The data (raw data including image files and scanner files (Cel. Files) as well as the MAS5 normalized data are stored in the DEMON Database. The MAS5 normalized data are exported from the database and analyzed using GeneSpring software version 6.1. The genes are filtered for a minimal expression of 100 in at least one condition (the condition being defined as the average the value for the 3 samples corresponding to a given time point and a treatement) The gene expression changes (fold change) are calculated for each time point (t) as follow: (Gene expression level LAQ824 treated—(Average of the 3 replicates) Time (t))/(Gene expression level DMSO treated—(Average of the 3 replicates) Time (t)).
Any fold change <0 indicated a down regulation or reduction of the mRNA production, any fold change >0 indicated an up regulation or increase of mRNA production. Genes are filtered according to the fold change and the statistical significance of the changes (1-way-ANOVA test p<0.05)).

## O=C(/C=C/c1ccc(CN(CCO)CCc2c[nH]c3ccccc23)cc1)NO [LAQ824, N-Hydroxy-3-[4-[[(2-hydroxyethyl)[2-(1H-indol-3-yl)-ethyl]-amino]methyl]phenyl]-2E-2-propenamide]
2 h
  Fold change AMP-activated protein kinase family member 5 (ARK5) 204589_at: −1.1 fold
  Fold change ANP32B acidic (leucine-rich) nuclear phosphoprotein 32 family, member B (SSP29) 201305_x_at: −1.3 fold
  Fold change AVEN apoptosis, caspase activation inhibitor (Aven) 219366_at: −1.2 fold
  Fold change B-cell CLL/lymphoma 3 (BCL3) 204908_s_at: −1.9 fold
  Fold change BAI1-associated protein 2 (BAP2, IRSp53) 205293_x_at: 1.4 fold
  Fold change BAI1-associated protein 3 (BAP3, KIAA0734) 204874_x_at: 1.0 fold
  Fold change BAI1-associated protein 3 (BAP3, KIAA0734) 216356_x_at: 2.3 fold
  Fold change BCL2-associated athanogene 2 (BAG-2) 209406_at: −1.4 fold
  Fold change BCL2-interacting killer (apoptosis-inducing) (BP4, NBK, BIP1) 205780_at: 2.0 fold
  Fold change BCL2-like 1 (BCL2L1) 206665_s_at: −1.2 fold
  Fold change BH3 interacting domain death agonist (BID) 204493_at: 1.1 fold
  Fold change Cyclin A2 (CCN1, CCNA) 203418_at: −1.3 fold
  Fold change Cyclin-dependent kinase inhibitor 2D (p19, inhibits CDK4) (INK4D) 210240_s_at: 1.9 fold
  Fold change DEC1-anti apoptosis (BHLHB2) 201169_s_at: −3.2 fold
  Fold change Diphtheria toxin receptor (heparin-binding epidermal growth factor-like growth factor) (DTR) 203821_at: 9.8 fold
  Fold change Early growth response 1 (TIS8, NGFI-A, KROX-24, ZIF-268) 201694_s_at: 1.4 fold
  Fold change GMCL germ cell-less homolog (Drosophila) (GMCL) 218458_at: 1.7 fold
  Fold change Katanin p80 (WD40-containing) subunit B 1 (KAT) 203163_at: 1.5 fold
  Fold change NACHT, leucine rich repeat and PYD containing 1 (PP1044) 218380_at: 2.8 fold
  Fold change Paternally expressed Gene 10 (PEG10) 212092_at: 1.1 fold
  Fold change Paternally expressed Gene 10 (PEG10) 212094_at: 1.1 fold
  Fold change Protein regulator of cytokinesis 1 (PRC1) 218009_s_at: −1.2 fold
  Fold change SKAP55 protein 216899_s_at: 1.0 fold
  Fold change Secreted frizzled-related protein 1 (FRP, SARP2) 202036_s_at: 1.1 fold
  Fold change Secreted frizzled-related protein 1 (FRP, SARP2) 202037_s_at: 1.1 fold
  Fold change Serine/threonine kinase 6 (AIK) 208079_s_at: 1.0 fold
  Fold change Tribbles homolog 3a (TRIB3) 218145_at: −1.3 fold
  Fold change Tumor necrosis factor receptor superfamily, member 6 (TNFRSF6) 215719_x_at: −1.3 fold
  Fold change Tumor necrosis factor receptor superfamily, member 6 (TNFRSF6) 216252_x_at: −1.3 fold
  Fold change Tumor protein p53 (Li-Fraumeni syndrome) 201746_at: 1.1 fold
  Fold change Tumor protein p53 (Li-Fraumeni syndrome) 211300_s_at: 1.1 fold
  Fold change member of the N-myc downregulated gene family (NDRG4) 209159_s_at: 1.2 fold
6 h
  Fold change AMP-activated protein kinase family member 5 (ARK5) 204589_at: −4.3 fold
  Fold change ANP32B acidic (leucine-rich) nuclear phosphoprotein 32 family, member B (SSP29) 201305_x_at: −1.6 fold
  Fold change AVEN apoptosis, caspase activation inhibitor (Aven) 219366_at: −1.5 fold
  Fold change B-cell CLL/lymphoma 3 (BCL3) 204908_s_at: −10.5 fold
  Fold change BAI1-associated protein 2 (BAP2, IRSp53) 205293_x_at: 6.2 fold
  Fold change BAI1-associated protein 3 (BAP3, KIAA0734) 204874_x_at: 5.1 fold
  Fold change BAI1-associated protein 3 (BAP3, KIAA0734) 216356_x_at: 11.1 fold
  Fold change BCL2-associated athanogene 2 (BAG-2) 209406_at: −2.4 fold
  Fold change BCL2-interacting killer (apoptosis-inducing) (BP4, NBK, BIP1) 205780_at: 6.3 fold
  Fold change BCL2-like 1 (BCL2L1) 206665_s_at: −4.2 fold
  Fold change BH3 interacting domain death agonist (BID) 204493_at: −1.9 fold
  Fold change Cyclin A2 (CCN1, CCNA) 203418_at: −2.3 fold
  Fold change Cyclin-dependent kinase inhibitor 2D (p19, inhibits CDK4) (INK4D) 210240_s_at: 4.9 fold
  Fold change DEC1-anti apoptosis (BHLHB2) 201169_s_at: −4.5 fold
  Fold change Diphtheria toxin receptor (heparin-binding epidermal growth factor-like growth factor) (DTR) 203821_at: 8.5 fold
  Fold change Early growth response 1 (TIS8, NGFI-A, KROX-24, ZIF-268) 201694_s_at: 3.6 fold
  Fold change GMCL germ cell-less homolog (Drosophila) (GMCL) 218458_at: 4.1 fold
  Fold change Katanin p80 (WD40-containing) subunit B 1 (KAT) 203163_at: 2.9 fold
  Fold change NACHT, leucine rich repeat and PYD containing 1 (PP1044) 218380_at: 7.6 fold
  Fold change Paternally expressed Gene 10 (PEG10) 212092_at: 2.0 fold
  Fold change Paternally expressed Gene 10 (PEG10) 212094_at: 1.9 fold
  Fold change Protein regulator of cytokinesis 1 (PRC1) 218009_s_at: −1.9 fold
  Fold change SKAP55 protein 216899_s_at: 1.6 fold
  Fold change Secreted frizzled-related protein 1 (FRP, SARP2) 202036_s_at: 1.6 fold
  Fold change Secreted frizzled-related protein 1 (FRP, SARP2) 202037_s_at: 1.8 fold
  Fold change Serine/threonine kinase 6 (AIK) 208079_s_at: −2.0 fold
  Fold change Tribbles homolog 3a (TRIB3) 218145_at: −4.6 fold
  Fold change Tumor necrosis factor receptor superfamily, member 6 (TNFRSF6) 215719_x_at: −3.2 fold
  Fold change Tumor necrosis factor receptor superfamily, member 6 (TNFRSF6) 216252_x_at: −2.9 fold
  Fold change Tumor protein p53 (Li-Fraumeni syndrome) 201746_at: −1.9 fold
  Fold change Tumor protein p53 (Li-Fraumeni syndrome) 211300_s_at: −1.6 fold
  Fold change member of the N-myc downregulated gene family (NDRG4) 209159_s_at: 2.8 fold

From patent US20070082339A1, “Methods and compositions for screening for HDAC inhibitory activity” (priority 2005, published 2007)
